One may read the EC50 as the concentration that produces a half-maximal response. A higher EC50 goes with weaker potency. A word on the IC50: it is the midpoint of a concentration-inhibition curve.

These results are taken from patent US9096580B2 (priority 2012, dated 2015).

For data set [1], the system named is genotype 1b HCV replicon in Huh-7 cells. The data set can be described thus: HCV replicon luciferase assay. It is filed as cell-based, HCV genotype 1b. The note with it: Hepatitis C virus, 72 h; Huh-7 genotype 1b replicon, Renilla luciferase, 3 days incubation. Here is the method:
The cell lines used to evaluate compounds consist of a human hepatocyte derived cell line (Huh-7) that constitutively expresses a genotype 1b HCV replicon containing a Renilla luciferase reporter gene. These cells were maintained in Dulbecco's modified Eagle medium (DMEM) containing 10% FBS, 100 U/mL penicillin/streptomycin and 1.0 mg/mL G418.
HCV Replicon Luciferase Assay.
To evaluate compound efficacy, titrated compounds were transferred to sterile 384-well tissue culture treated plates, and the plates were seeded with HCV replicon cells (50 μL at a density of 2.4×10^3 cells/well) in DMEM containing 4% FBS (final DMSO concentration at 0.5%). After 3 days incubation at 37° C., cells were analyzed for Renilla Luciferase activity using the EnduRen substrate (Promega cat #E6485) according to the manufacturer's directions. Briefly, the EnduRen substrate was diluted in DMEM and then added to the plates to a final concentration of 7.5 μM. The plates were incubated for at least 1 h at 37° C. then read on a Viewlux Imager (PerkinElmer) using a luminescence program. The 50% effective concentration (EC50) was calculated using the four-parameter logistic formula noted above.
On the technique in general: In antiviral work, replicon cells carry a viral genome segment that copies itself.

The target in data set [2] is HCV NS5B RdRp, genotype 1b (Hepatitis C virus genotype 1b (isolate Con1) (HCV), UniProt Q9WMX2). The data set can be described thus: HCV NS5B RdRp enzyme assay. It is filed as biochemical, HCV genotype 1b. Here is the method:
HCV NS5B RdRp Cloning, Expression, and Purification.
The cDNA encoding the NS5B protein of HCV, genotype 1b, was cloned into the pET21a expression vector. The protein was expressed with an 18 amino acid C-terminal truncation to enhance the solubility. The E. coli competent cell line BL21(DE3) was used for expression of the protein. Cultures were grown at 37° C. for ˜4 hours until the cultures reached an optical density of 2.0 at 600 nm. The cultures were cooled to 20° C. and induced with 1 mM IPTG. Fresh ampicillin was added to a final concentration of 50 μg/mL and the cells were grown overnight at 20° C.
The lysis buffer consisted of 20 mM Tris-HCl, pH 7.4, 500 mM NaCl, 0.5% triton X-100, 1 mM DTT, 1 mM EDTA, 20% glycerol, 0.5 mg/mL lysozyme, 10 mM MgCl2, 15 ug/mL deoxyribonuclease I, and Complete TM protease inhibitor tablets (Roche). After addition of the lysis buffer, frozen cell pellets were resuspended using a tissue homogenizer. […]
After incubating for at least 15 minutes, plates were read on an Amersham LEADseeker multimodality imaging system.
IC50 values for compounds were determined using ten different [I]. IC50 values were calculated from the inhibition using the four-parameter logistic formula y=A+((B−A)/(1+((C/x)^D))), where A and B denote minimal and maximal % inhibition, respectively, C is the IC50, D is hill slope and x represents compound concentration.

In data set [3] the test system is HCV. The note with it: cited from earlier work.
The subject of data set [4] is HCV. The note with it: combination therapy; cited from earlier work.

Sequence of HCV NS5B RdRp, genotype 1b (Q9WMX2 2420-2992): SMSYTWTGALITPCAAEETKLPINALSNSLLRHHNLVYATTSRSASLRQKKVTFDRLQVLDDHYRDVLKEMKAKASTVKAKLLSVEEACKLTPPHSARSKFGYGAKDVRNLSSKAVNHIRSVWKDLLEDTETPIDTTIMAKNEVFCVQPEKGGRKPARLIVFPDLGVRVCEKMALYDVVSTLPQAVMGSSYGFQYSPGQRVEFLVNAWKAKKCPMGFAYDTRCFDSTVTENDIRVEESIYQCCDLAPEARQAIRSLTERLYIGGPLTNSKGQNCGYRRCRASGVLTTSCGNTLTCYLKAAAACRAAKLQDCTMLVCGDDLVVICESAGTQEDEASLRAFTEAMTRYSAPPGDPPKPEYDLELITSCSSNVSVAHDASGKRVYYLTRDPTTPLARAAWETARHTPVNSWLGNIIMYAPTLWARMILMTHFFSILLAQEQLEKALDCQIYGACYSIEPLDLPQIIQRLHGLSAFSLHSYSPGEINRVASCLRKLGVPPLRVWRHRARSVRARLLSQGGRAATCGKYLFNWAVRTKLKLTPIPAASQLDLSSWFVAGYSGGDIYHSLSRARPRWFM

As to `CNC(=O)c1c(-c2ccc(F)cc2)oc2ccc(-c3cc(C(=O)NC4(c5ncccn5)CNC4)c(OC)cc3C)c(F)c12`, the EC50 in data set [1] was determined as 900 nM. For the compound `CNC(=O)c1c(-c2ccc(F)cc2)oc2ccc(-c3cc(C(=O)NC4(c5ncccn5)CNC4)cc(F)c3C)c(F)c12`, the IC50 in data set [2] came to 330 nM. This compound showed an EC50 in data set [1] of 390 nM. The corresponding values for `CNC(=O)c1c(-c2ccc(F)cc2)oc2ccc(-c3cc(C(=O)NC4(c5ncccn5)CN(C)C4)ccc3C)c(F)c12` are 780 nM and 2460 nM. `CNC(=O)c1c(-c2ccc(F)cc2)oc2ccc(-c3cc(C(=O)NC4(c5ncccn5)CN(C)C4)c(OC)cc3C)c(F)c12` registered an EC50 in data set [1] of 1190 nM. In turn, `CNC(=O)c1c(-c2ccc(F)cc2)oc2ccc(-c3cc(C(=O)NC4(c5ncccn5)CNC4)ccc3C)c(F)c12` [4-fluoro-2-(4-fluorophenyl)-N-methyl-5-(2-methyl-5-(3-(pyrimidin-2-yl)azetidin-3-ylcarbamoyl)phenyl)benzofuran-3-carboxamide] came in with an EC50 in data set [1] of 4330 nM. With `CNC(=O)c1c(-c2ccc(F)cc2)oc2ccc(-c3cc(C(=O)NC4(c5ncccn5)CN(C)C4)cc(F)c3C)c(F)c12` [4-fluoro-5-(3-fluoro-2-methyl-5-(1-methyl-3-(pyrimidin-2-yl)azetidin-3-ylcarbamoyl)phenyl)-2-(4-fluorophenyl)-N-methylbenzofuran-3-carboxamide], the concentration for a half-maximal effect (EC50) in data set [1] stood at 820 nM. Take `CNC(=O)c1c(-c2ccc(F)cc2)oc2cc(N(CCO)S(C)(=O)=O)c(C3CC3)cc12` [HCV-796]: the “toxicity during extended dosing” value with HCV [3] (extended dosing of the combination regimens with interferon and ribavirin) was “hepatic toxicity”. Also, the “HCV RNA levels in patients” value in the data set with HCV [3] (patients, single agent: transient decrease then rebound) was “reduce HCV RNA levels”.

Turning to alpha-interferon and ribavirin, the “sustained efficacy, share of patients” value with HCV [4] was 40%.
